The values below come from patent publication US20240207159A1, “SKIN PENETRATION IMPROVER” (KANEKA CORPORATION, priority 2021, published 2024).

What all share (format): in vitro ADME, human
The nature of data set [1]: Transdermal absorption test using cosmetics component (Franz diffusion cell, tape stripping, HPLC). The conditions noted are these: for Penetration amount into epidermis/dermis (%) / Penetration amount into stratum corneum (%) / Wiping + first layer (%): 2 mg/cm^2, 6 hours; for Penetration amount into epidermis/dermis (%) / Penetration amount into stratum corneum (%) / Wiping + first layer (%) / Passing amount (%): ratio to 100 as total retrieved amount; for Passing amount (%): receptor liquid, 6 hours; for skin penetration property into the skin: combination of surfactin and a phospholipid in comparison with the aqueous solution. Here is the method: The skin penetration properties of niacinamide and arbutin, which are often mixed in cosmetics as active ingredients, were evaluated by a similar test to Example 1. A circle human skin sample having a thickness of about 700 μm was attached to a test cell of an In vitro transdermal penetration test device (“TransView C12” manufactured by CosMED). The test cell is an open system Franz diffusion cell having an effective diameter of 2.0 cm, an area of 3.14 cm- and a receptor liquid volume of 2.4 mL. An electrical resistance value was measured to confirm that there were not any problems with the sample. Then, the test cell was filled with a phosphate buffer solution of pH 7.0 as a receptor liquid. The phosphate buffer solution of pH 7.0 containing 2 mass % surfactin sodium salt (SF), 1 mass % natural lecithin and 5 mass % active ingredient was applied to the skin sample at a rate of 2 mg/cm^2, and the skin sample was installed at the test device of which temperature was maintained at 32° C. to start the test. A phosphate buffer solution containing 5 mass % active ingredient was concurrently subjected to the test as control.
(§1) The skin sample was taken out of the test cell 6 hours after the start of the test, and the surface was wiped using cotton. Then, the first round of tape stripping, hereinafter referred to as “TS”, was conducted using a dedicated tape, hereinafter referred to as “tape”. Specifically, the tape was attached to the skin sample and then peeled. A mixed solvent (15 mL) of ethanol:water=1:1 by v/v was added thereto, and ultrasonic wave was applied to the mixture for 1 hour for extraction. The obtained liquid was retrieved, and the above-described mixed solvent was added thereto to adjust the total amount to 20 mL as an analytic sample of “wiping+first layer”.
(§2) Then, the second or later round of TS were conducted. The number of the total times of TS was 15 at a maximum, and the number of times was adjusted depending on the condition of the skin sample surface. The tapes of second or later round were combined, and the extraction using aqueous ethanol and the total amount adjustment were conducted in a similar condition to the above to prepare an analytic sample of “penetration amount into stratum corneum”.
(§3) In addition, the remaining skin sample was finely cut and divided into two tubes for crushing. Water (0.5 mL) was added into each tube, and the skin was crushed using a crushing machine for 20 minutes. The liquid containing the crushed skin was retrieved from two tubes into one centrifuge test. Then, ethanol (12 mL) was added thereto, and the mixture was efficiently stirred and centrifuged to obtain a supernatant. Water was added to the obtained supernatant to adjust the total amount to 20 mL to prepare an analytic sample of “penetration amount into epidermis/dermis”.
(§4) The receptor liquid was also retrieved, and water was added thereto to adjust the total amount to 20 mL to prepare an analytic sample of “passing amount”. The amounts of each active ingredient in each obtained solution were measured by HPLC.
The amounts of the active ingredients retrieved from each sample of the above-described “wiping+first layer”, “penetration amount into stratum corneum”, “penetration amount into epidermis/dermis” are shown in Table 1 as ratios to 100 as the total amount retrieved from 4 samples.

The nature of data set [2]: Transdermal absorption test of water-soluble fluorescent dye (Franz diffusion cell, fluorescence microscopy of frozen section). Conditions: 6 hours. As for the experimental part: A circle human skin sample having a thickness of about 700 μm was attached to a test cell of an In vitro transdermal penetration test device (“TransView C12” manufactured by CosMED). The test cell was an open system Franz diffusion cell having an effective diameter of 1.7 cm, an area of 2.27 cm^2 and a receptor liquid volume of 5.75 mL. An electrical resistance value was measured to confirm that there was not any problems with the sample. Then, the test cell was filled with a phosphate buffer solution of pH 7.0 as a receptor liquid. The phosphate buffer solution of pH 7.01 (500 μL) containing 1.5 mass % surfactin sodium salt (SF), 1 mass % phospholipid (DMPC: 1,2-dimyristoyl-sn-glycero-3-phosphocholine) and 10 mM water-soluble fluorescent dye (calcein) was applied to the skin sample, and the skin sample was installed at the test device of which temperature was maintained at 32° ° C. to start the test.
In addition, similar tests were conducted for comparison using a PBS solution of pH 7.09 containing 10 mM water-soluble fluorescent dye, a PBS solution of pH 6.99 containing 10 mM water-soluble fluorescent dye+1.5 mass % SF, and a PBS solution of pH 7.08 containing 10 mM water-soluble fluorescent dye+1 mass % phospholipid.
The skin sample was cut 6 hours after the start of the test, embedded in O. C. T. Compound, cooled using cooled acetone to be frozen, and sliced to prepare a frozen section. The cut surface was observed using a fluorescence microscope. Separately, the used human skin sample was dyed using hematoxylin-eosin and observed under magnification.
The result of the human skin sample is shown in FIG. 1, the result of the 10 mM water-soluble fluorescent dye PBS solution is shown in FIG. 2A, the result of the 10 mM water-soluble fluorescent dye+1.5 mass % SF PBS solution is shown in FIG. 2B, the result of the 10 mM water-soluble fluorescent dye+1 mass % phospholipid PBS solution is shown in FIG. 2C, and the result of the 10 mM water-soluble fluorescent dye+1 mass % phospholipid+1.5 mass % SF PBS solution is shown in FIG. 2D.

A short description of data set [3]: Effect of concentrations of phospholipid and surfactin on penetration of active ingredient (transdermal absorption test). The conditions noted are these: 5 mass % niacinamide. As for the experimental part: A circle human skin sample having a thickness of about 700 μm was attached to a test cell of an In vitro transdermal penetration test device (“TransView C12” manufactured by CosMED). The test cell is an open system Franz diffusion cell having an effective diameter of 2.0 cm, an area of 3.14 cm- and a receptor liquid volume of 2.4 mL. An electrical resistance value was measured to confirm that there were not any problems with the sample. Then, the test cell was filled with a phosphate buffer solution of pH 7.0 as a receptor liquid. The phosphate buffer solution of pH 7.0 containing 2 mass % surfactin sodium salt (SF), 1 mass % natural lecithin and 5 mass % active ingredient was applied to the skin sample at a rate of 2 mg/cm^2, and the skin sample was installed at the test device of which temperature was maintained at 32° C. to start the test.
as §1, §2, §3, §4
The condition of Example 2 was used as a benchmark of the concentrations of a phospholipid and surfactin in the samples applied to the skin, and the concentration, the ½ concentration thereof and the 1/10 concentration thereof were tested. All of the concentrations of niacinamide in the samples were adjusted to 5 mass %. The ratio of the active ingredient amounts in each sample to 100 of the total retrieved amount are shown.

[4] abbreviates: Control: phosphate buffer solution containing 5 mass % active ingredient, 32 °C.
Setting [5] is: Control: phosphate buffer solution containing 5 mass % active ingredient.
The mark [6] stands for this setting: Example: 2 mass % SF + 1 mass % natural lecithin + 5 mass % active ingredient, phosphate buffer pH 7.0.
Where [7] appears, read: Example: 2 mass % surfactin sodium salt (SF) + 1 mass % natural lecithin + 5 mass % active ingredient, phosphate buffer pH 7.0.
Where [8] appears, read: 1/10 conc. of phospholipid and surfactin of Example 2.
The mark [9] stands for this setting: Control, ratio to 100 of total retrieved amount.
Setting [10] is: Example: phospholipid and surfactin at the concentration of Example 2.
Setting [11] is: ½ conc. of phospholipid and surfactin of Example 2.

Consider `OC[C@H]1O[C@@H](Oc2ccc(O)cc2)[C@H](O)[C@@H](O)[C@@H]1O` [Arbutin, arbutin], for which, in data set [1] (setting [4]), the “Penetration amount into epidermis/dermis (%)” value was found to be 0%, the “Penetration amount into stratum corneum (%)” value is 5% and the “Wiping + first layer (%)” value stood at 95%. Also, the “Passing amount (%)” value in data set [1] (setting [5]) stood at 0%. Also, in data set [1] (setting [6]), the “Penetration amount into epidermis/dermis (%)” value stood at 23%, the “Penetration amount into stratum corneum (%)” value is reported as 25% and the “Passing amount (%)” value is 0%. In addition, the “Wiping + first layer (%)” value in data set [1] (setting [7]) is 52%. Besides, the “skin penetration property into the skin” value in data set [1] was “remarkably improved”.

For `O=C(O)CN(CC(=O)O)Cc1cc2c(cc1O)Oc1cc(O)c(CN(CC(=O)O)CC(=O)O)cc1C21OC(=O)c2ccccc21` [water-soluble fluorescent dye, calcein], the “skin penetration of the water-soluble fluorescent dye (fluorescence microscope, cut surface)” value was “reached deeper epidermal tissue than the stratum corneum but mainly remained in the stratum corneum” in data set [2] (PBS solution pH 6.99, 10 mM dye + 1.5 mass % SF (surfactin sodium salt), FIG. 2B); “reached deeper epidermal tissue than the stratum corneum but mainly remained in the stratum corneum” in data set [2] (PBS solution pH 7.08, 10 mM dye + 1 mass % phospholipid (DMPC), FIG. 2C); “remained on the surface and could not infiltrate the deeper area than the stratum corneum” in data set [2] (PBS solution pH 7.09, 10 mM dye only, 32 °C, FIG. 2A); “clearly infiltrated the epidermal tissue and also reached the dermis” in data set [2] (phosphate buffer pH 7.01, 10 mM dye + 1 mass % phospholipid (DMPC) + 1.5 mass % SF, FIG. 2D).

In the case of `NC(=O)c1cccnc1` [Niacinamide, niacinamide], the “Penetration amount into epidermis/dermis (%)” value is 5% in data set [1] (setting [4]); 37% in data set [1] (setting [6]); 18% in data set [3] (setting [8]); 8% in data set [3] (setting [9]); 18% in data set [3] (setting [10]); 18% in data set [3] (setting [11]). Besides, the “Penetration amount into stratum corneum (%)” value in data set [1] (setting [4]) is given as 7%; in data set [1] (setting [6]), 39%; in data set [3] (setting [8]), 26%; in data set [3] (setting [9]) it was 11%; in data set [3] (setting [10]), 23%; in data set [3] (setting [11]) it was 23%. Further, the “Wiping + first layer (%)” value in data set [1] (setting [4]) amounted to 89%; in data set [1] (setting [7]), 24%; in data set [3] (setting [8]), 41%; in data set [3] (setting [9]), 65%; in data set [3] (setting [10]), 19%; in data set [3] (setting [11]), 44%. Moreover, the “Passing amount (%)” value in data set [1] (setting [5]) amounted to 0%; in data set [1] (setting [6]), 0%; in data set [3] (setting [8]), 15%; in data set [3] (setting [9]) it was 15%; in data set [3] (setting [10]), 39%; in data set [3] (setting [11]), 15%. Besides, the “skin penetration property into the skin” value in data set [1] was “remarkably improved”.
